{
  "source": "patent US11422091B2",
  "about": "“Turn-on near infrared fluorescent probes for imaging lysosomal ROS in live cells at subcellular resolution” (University of Massachusetts, priority 2015, dated 2022)",
  "key": {"[1]": {"test": "Fluorescent responses of RTMI to various ROS in PBS", "method": "Fresh solutions of L-ascorbic acid (50 mM), hydrogen peroxide (100 mM), tert-butyl hydrogen peroxide (TBHP, 100 mM), 3-morpholinosydnonimine (SIN-1, 5 mM), glutathione reduced form (GSH, 10 mM) and glutathione oxidized form (GSSG, 10 mM) were prepared with distilled water. […]\nThe hydroxyl and butoxyl radicals were generated in situ by reacting hydrogen peroxide or TBHP with Fe^2+. Fresh 10 mM Fe^2+ was made in 0.1 M HCl solution using ferrous ammonium sulfate [Fe(NH4)2(SO4)2.6H2O]. A 10 μM RTMI solution, in PBS, containing 10 μM Fe^2+ was made and either hydrogen peroxide or TBHP was added to this solution to generate a 100 μM concentration.\nFluorescence spectra were recorded on a Perkin-Elmer LS55 luminescence spectrometer at 293 K. The excitation wavelengths and filters used were indicated in the figures. The pH measurements were carried out on a Corning pH meter equipped with a Sigma-Adrich micro combination electrode calibrated with standard buffer solution.\nFluorescent responses of RTMI (100 μM) to various ROS were monitored in PBS, containing 1% methanol. Various reactive oxygen species were added to the 100 μM RTMI solutions, at a 5:1 molar ratio to RTMI, and the fluorescence intensity was recorded after 5 min of incubation at 25° C. Superoxide (O2.^−) was added as solid KO2. Stock solution solutions of hydrogen peroxide, tert-butyl hydrogen peroxide (TBHP), hypochlorite, 3-morpholinosydnonimine (SIN-1), glutathione (GSH) and 1,4-hydroquinone were made and then added to the RTMI solution, to generate a 500 μM final concentration. 3-(aminopropyl)-1-hydroxy-3-isopropyl-2-oxo-1-triazene (NOC-5, 1 mM) was made as a 10 mM sodium hydroxide solution and then added to the RTMI solution, to generate a 500 μM final concentration. The hydroxyl and butoxyl radicals were generated in situ by reacting hydrogen peroxide or TBHP with Fe^2+. A 100 μM RTMI solution, in PBS, containing 500 μM Fe^2 was made and either hydrogen peroxide or TBHP was added to this solution to generate a 500 μM concentration."}, "[2]": {"test": "Photo stability of the sensor", "format": "physicochemical"}, "[3]": {"system": "Bovine Aortic Endothelial Cells (BAEC)", "test": "Co-localization with Mito Tracker Green and Lyso Tracker Blue, confocal imaging in BAEC", "format": "cell-based", "conditions": "BAEC preloaded with TBHP (100 μM) 30 min, RTMI (10 μM) 30 min", "method": "Confocal fluorescence imaging studies were performed with a Zeiss LSM 710 laser scanning microscope."}, "BAEC cells": {"system": "BAEC cells", "test": "Detection of ROS in live BAEC cells by fluorescence microscopy", "format": "cell-based, bovine", "conditions": "HO., H2O2, KO2, TBO, TBHP, peroxynitrite or ox-LDL, RTMI 10 μM", "method": "In one embodiment, the RTMI may be used to analyze ROS species within living systems. The RTMI sensor solution was applied to live cells and analyzed under a fluorescence microscope. Each of the various ROS (HO., H2O2, KO2, TBO, TBHP, peroxynitrite) or ROS inducer (ox-LDL) that were present combined with the RTMI sensor were incubated with BAEC cells.\nThe sensor RTMI was dissolved in DMF at a concentration of 10 mM. 1 μL of the DMF solution was added to cell medium without fetal bovine serum. Cell culture medium was removed from the cells in the culture dish and replaced with the fresh medium containing the sensor.\nOxidized low density lipoprotein (Ox-LDL, a stimulation factor for ROS production in cells) was dissolved in water solution and the final concentration in cell media was 20 μg/mL.\nCommercial H2O2 (30% wt, density of 1.1 g/ml, MW 34.02 g/mol) was diluted with deionized water to make a fresh solution of 100 mM. 1 μL of the fresh solution was added to cell media to generate a final concentration of 100 μM.\nSIN1 (a peroxyitrite donor) was dissolved in deionized water to the concentration of 10 mM; 10 μL of this solution added to cell media to generate a final concentration of 100 μM.\nFe^2+ was freshly made from ferrous ammonium sulfate (MW 392.15 g/mol) dissolved in 0.1 M HCl (DI water solution) to generate a fresh solution of 100 mM. […]"}, "[4]": {"conditions": "RTMI 100 μM in PBS, 1% methanol, 500 μM, 5 min, 25° C."}},
  "data": [
    {"smiles": "CCCN1c2ccccc2C(C)(C)C1/C=C/C1=C2Oc3cc(O)ccc3C=C2CCC1", "note": "(stereo not drawn) [RTMI]", "values": [
      {"measurement": "fluorescence response to TBHP", "setting": "[1]; [4]", "result": "turn-on"},
      {"measurement": "fluorescence response to hydrogen peroxide", "setting": "[1]; [4]", "result": "turn-on"},
      {"measurement": "fluorescence response to peroxynitrite (generated by SIH 1)", "setting": "[1]; [4]", "result": "turn-on"},
      {"measurement": "fluorescence response to superoxide (O2.-)", "setting": "[1]; RTMI 100 μM in PBS, 1% methanol, solid KO2, 5:1 molar ratio, 5 min, 25° C.", "result": "turn-on"},
      {"measurement": "fluorescence response to butoxyl radical (TBO)", "setting": "[1]; RTMI 100 μM in PBS, generated in situ from TBHP 500 μM and Fe2+ 500 μM", "result": "turn-on"},
      {"measurement": "fluorescence response to hydroxyl radical", "setting": "[1]; RTMI 100 μM in PBS, generated in situ from hydrogen peroxide 500 μM and Fe2+ 500 μM", "result": "turn-on"},
      {"measurement": "fluorescence response to Fe2+", "setting": "[1]; beyond baseline fluorescence", "result": "does not respond"},
      {"measurement": "fluorescence response to GSH", "setting": "[1]; beyond baseline fluorescence", "result": "does not respond"},
      {"measurement": "fluorescence response to GSSG", "setting": "[1]; beyond baseline fluorescence", "result": "does not respond"},
      {"measurement": "fluorescence response to nitrite", "setting": "[1]; beyond baseline fluorescence", "result": "does not respond"},
      {"measurement": "fluorescence response to nitric oxide radical", "setting": "[1]; beyond baseline fluorescence, NOC-5", "result": "does not respond"},
      {"measurement": "fluorescence peak upon reacting with ROS", "setting": "[1]; in physiological buffer, near IR region", "result": 705, "unit": "nm"},
      {"measurement": "photo stability", "setting": "[2]", "result": "very good photo stability"},
      {"measurement": "subcellular location of ROS detected by the sensor", "setting": "[3]", "result": "in lysosomes"},
      {"measurement": "fluorescence emission in the near IR region of cells treated with ROS or ROS inducers, compared to the control", "setting": "BAEC cells", "result": "strongly fluorescence emission signals"}
    ]}
  ]
}
